Results on 2 molecules are retold here after publication PMC7000700, “RyR1-targeted drug discovery pipeline integrating FRET-based high-throughput screening and human myofiber dynamic Ca^2+ assays” (Scientific Reports, 2020).

Assay [1] addresses T1, RyR1 (Sus scrofa, UniProt P16960). More on the design: RyR1 in skeletal SR membranes; from tissue; host or cells: porcine longissimus dorsi muscle (heavy SR vesicles); method as in PMID 27760856. The following applies: skeletal HSR, previous study; cited from earlier work.
Assay [2] has as its target T1, RyR1. On the set-up: RyR1 in skeletal SR membranes; from tissue; host or cells: porcine longissimus dorsi muscle (heavy SR vesicles); method as in PMID 27760856. The following applies: NIH Clinical Collection screen; cited from earlier work.
For assay [3], the system named is RyR1 Ca^2+ leak in human skinned skeletal muscle fibers. Nature of the assay: t-system Ca2+ readout of RyR1 Ca2+ leak in human mechanically skinned skeletal muscle fibers. The following applies: for Reduction of RyR1 Ca2+ leak: at identified compound concentrations that only slightly affected Ca2+ release in EC coupling.
In assay [4] the target is T2, RyR2 (Sus scrofa, UniProt A0A5G2R1W3). The experiment in a line: F-FKBP binding to RyR2 by co-sedimentation with cardiac SR membranes. More on the design: using co-sedimentation with pig skeletal and cardiac SR membranes; from tissue; host or cells: pig cardiac muscle (crude SR membranes); species or system pig. The following applies: RyR2, 10 μM Hit, 30 nM Ca2+, 5 mM GSSG or GSH. The protocol:
(§1) The Hit-induced effect on FRET between D-FKBP and A-CaM most likely results from one or the combination of factors, including a shift in CaM and/or FKBP12.6 binding, and/or structure of the RyR complex that shifts the D-A distance. Under the same assay conditions as in the primary screen, we assessed the effect of 10 μM Hit on fluorescent FKBP12.6 (F-FKBP) binding to RyRs, using co-sedimentation with pig skeletal and cardiac SR membranes.
(§2) Supplementary Fig. 3 Effect of HTS Hits on F-FKBP binding to a) RyR1 in skeletal HSR membranes, and b) RyR2
(§3) in cardiac CSR membranes at 30 nM Ca2+ in the presence of 5 mM GSSG or GSH. Results are represented as individual
(§4) data points and means ± SEM, n = 4-5. *P < 0.05 by 2-sided Student’s unpaired t-test. […]

Assay [5] concerns the target T2, RyR2. The experiment in a line: [3H]ryanodine binding to cardiac SR vesicles. The assay is classed as biochemical, porcine. More on the design: RyR1 in skeletal SR membranes, and RyR2 in cardiac SR membranes; from tissue; host or cells: porcine cardiac left ventricle (crude SR vesicles). To be noted: micromolar compound, significant only with CaM at 30 nM Ca2+ and only without CaM at 30 μM Ca2+. The method, then: To evaluate the functional impact of compounds identified through our FRET-based screen, we first used [^3H]ryanodine binding assays. The level of [^3H]ryanodine binding to RyRs in SR membranes is a well-established index of the RyR channel activity. Given the role of CaM binding in our FRET readout, we investigated whether CaM influences the functional effect of the Hit compounds by carrying out [^3H]ryanodine binding assays in the absence and presence of CaM (300 nM).
Crude sarcoplasmic reticulum (CSR) vesicles were isolated from porcine longissimus dorsi muscle and porcine cardiac left ventricle tissue by differential centrifugation of homogenized tissue. […] Immediately prior to the fluorescence or [^3H]ryanodine binding studies described below, the SR vesicles were stripped of residual endogenous CaM by incubation with a peptide derived from the CaM binding domain of myosin light chain kinase, followed by sedimentation.
In 96-well plates, HSR vesicles (1 mg/ml) and cardiac CSR vesicles (3 mg/mL) were pre-incubated with 0.02% DMSO or Hit compound, with or without 300 nM CaM, for 30 min at 22 °C in a solution containing 150 mM KCl, 5 mM GSSG, 1 µg/mL Aprotinin/Leupeptin, 1 mM EGTA, and 65 µM or 1.02 mM CaCl2 (as determined by MaxChelator to yield 30 nM or 30 μM of free Ca^2+, respectively), 0.1 mg/mL BSA and 20 mM K-PIPES (pH 7.0). […]

The target in assay [6] is T1, RyR1. Nature of the assay: F-FKBP binding to RyR1 by co-sedimentation with skeletal SR membranes. More on the design: using co-sedimentation with pig skeletal and cardiac SR membranes; from tissue; host or cells: pig skeletal muscle (heavy SR membranes); species or system pig. To be noted: RyR1, 10 μM Hit, 30 nM Ca2+, 5 mM GSSG or GSH. The method, then:
as §1, §2, §3, §4

[7] abbreviates: 10 μM compound, 200 nM [Ca2+]cyto.

T1 sequence (P16960 whole entry): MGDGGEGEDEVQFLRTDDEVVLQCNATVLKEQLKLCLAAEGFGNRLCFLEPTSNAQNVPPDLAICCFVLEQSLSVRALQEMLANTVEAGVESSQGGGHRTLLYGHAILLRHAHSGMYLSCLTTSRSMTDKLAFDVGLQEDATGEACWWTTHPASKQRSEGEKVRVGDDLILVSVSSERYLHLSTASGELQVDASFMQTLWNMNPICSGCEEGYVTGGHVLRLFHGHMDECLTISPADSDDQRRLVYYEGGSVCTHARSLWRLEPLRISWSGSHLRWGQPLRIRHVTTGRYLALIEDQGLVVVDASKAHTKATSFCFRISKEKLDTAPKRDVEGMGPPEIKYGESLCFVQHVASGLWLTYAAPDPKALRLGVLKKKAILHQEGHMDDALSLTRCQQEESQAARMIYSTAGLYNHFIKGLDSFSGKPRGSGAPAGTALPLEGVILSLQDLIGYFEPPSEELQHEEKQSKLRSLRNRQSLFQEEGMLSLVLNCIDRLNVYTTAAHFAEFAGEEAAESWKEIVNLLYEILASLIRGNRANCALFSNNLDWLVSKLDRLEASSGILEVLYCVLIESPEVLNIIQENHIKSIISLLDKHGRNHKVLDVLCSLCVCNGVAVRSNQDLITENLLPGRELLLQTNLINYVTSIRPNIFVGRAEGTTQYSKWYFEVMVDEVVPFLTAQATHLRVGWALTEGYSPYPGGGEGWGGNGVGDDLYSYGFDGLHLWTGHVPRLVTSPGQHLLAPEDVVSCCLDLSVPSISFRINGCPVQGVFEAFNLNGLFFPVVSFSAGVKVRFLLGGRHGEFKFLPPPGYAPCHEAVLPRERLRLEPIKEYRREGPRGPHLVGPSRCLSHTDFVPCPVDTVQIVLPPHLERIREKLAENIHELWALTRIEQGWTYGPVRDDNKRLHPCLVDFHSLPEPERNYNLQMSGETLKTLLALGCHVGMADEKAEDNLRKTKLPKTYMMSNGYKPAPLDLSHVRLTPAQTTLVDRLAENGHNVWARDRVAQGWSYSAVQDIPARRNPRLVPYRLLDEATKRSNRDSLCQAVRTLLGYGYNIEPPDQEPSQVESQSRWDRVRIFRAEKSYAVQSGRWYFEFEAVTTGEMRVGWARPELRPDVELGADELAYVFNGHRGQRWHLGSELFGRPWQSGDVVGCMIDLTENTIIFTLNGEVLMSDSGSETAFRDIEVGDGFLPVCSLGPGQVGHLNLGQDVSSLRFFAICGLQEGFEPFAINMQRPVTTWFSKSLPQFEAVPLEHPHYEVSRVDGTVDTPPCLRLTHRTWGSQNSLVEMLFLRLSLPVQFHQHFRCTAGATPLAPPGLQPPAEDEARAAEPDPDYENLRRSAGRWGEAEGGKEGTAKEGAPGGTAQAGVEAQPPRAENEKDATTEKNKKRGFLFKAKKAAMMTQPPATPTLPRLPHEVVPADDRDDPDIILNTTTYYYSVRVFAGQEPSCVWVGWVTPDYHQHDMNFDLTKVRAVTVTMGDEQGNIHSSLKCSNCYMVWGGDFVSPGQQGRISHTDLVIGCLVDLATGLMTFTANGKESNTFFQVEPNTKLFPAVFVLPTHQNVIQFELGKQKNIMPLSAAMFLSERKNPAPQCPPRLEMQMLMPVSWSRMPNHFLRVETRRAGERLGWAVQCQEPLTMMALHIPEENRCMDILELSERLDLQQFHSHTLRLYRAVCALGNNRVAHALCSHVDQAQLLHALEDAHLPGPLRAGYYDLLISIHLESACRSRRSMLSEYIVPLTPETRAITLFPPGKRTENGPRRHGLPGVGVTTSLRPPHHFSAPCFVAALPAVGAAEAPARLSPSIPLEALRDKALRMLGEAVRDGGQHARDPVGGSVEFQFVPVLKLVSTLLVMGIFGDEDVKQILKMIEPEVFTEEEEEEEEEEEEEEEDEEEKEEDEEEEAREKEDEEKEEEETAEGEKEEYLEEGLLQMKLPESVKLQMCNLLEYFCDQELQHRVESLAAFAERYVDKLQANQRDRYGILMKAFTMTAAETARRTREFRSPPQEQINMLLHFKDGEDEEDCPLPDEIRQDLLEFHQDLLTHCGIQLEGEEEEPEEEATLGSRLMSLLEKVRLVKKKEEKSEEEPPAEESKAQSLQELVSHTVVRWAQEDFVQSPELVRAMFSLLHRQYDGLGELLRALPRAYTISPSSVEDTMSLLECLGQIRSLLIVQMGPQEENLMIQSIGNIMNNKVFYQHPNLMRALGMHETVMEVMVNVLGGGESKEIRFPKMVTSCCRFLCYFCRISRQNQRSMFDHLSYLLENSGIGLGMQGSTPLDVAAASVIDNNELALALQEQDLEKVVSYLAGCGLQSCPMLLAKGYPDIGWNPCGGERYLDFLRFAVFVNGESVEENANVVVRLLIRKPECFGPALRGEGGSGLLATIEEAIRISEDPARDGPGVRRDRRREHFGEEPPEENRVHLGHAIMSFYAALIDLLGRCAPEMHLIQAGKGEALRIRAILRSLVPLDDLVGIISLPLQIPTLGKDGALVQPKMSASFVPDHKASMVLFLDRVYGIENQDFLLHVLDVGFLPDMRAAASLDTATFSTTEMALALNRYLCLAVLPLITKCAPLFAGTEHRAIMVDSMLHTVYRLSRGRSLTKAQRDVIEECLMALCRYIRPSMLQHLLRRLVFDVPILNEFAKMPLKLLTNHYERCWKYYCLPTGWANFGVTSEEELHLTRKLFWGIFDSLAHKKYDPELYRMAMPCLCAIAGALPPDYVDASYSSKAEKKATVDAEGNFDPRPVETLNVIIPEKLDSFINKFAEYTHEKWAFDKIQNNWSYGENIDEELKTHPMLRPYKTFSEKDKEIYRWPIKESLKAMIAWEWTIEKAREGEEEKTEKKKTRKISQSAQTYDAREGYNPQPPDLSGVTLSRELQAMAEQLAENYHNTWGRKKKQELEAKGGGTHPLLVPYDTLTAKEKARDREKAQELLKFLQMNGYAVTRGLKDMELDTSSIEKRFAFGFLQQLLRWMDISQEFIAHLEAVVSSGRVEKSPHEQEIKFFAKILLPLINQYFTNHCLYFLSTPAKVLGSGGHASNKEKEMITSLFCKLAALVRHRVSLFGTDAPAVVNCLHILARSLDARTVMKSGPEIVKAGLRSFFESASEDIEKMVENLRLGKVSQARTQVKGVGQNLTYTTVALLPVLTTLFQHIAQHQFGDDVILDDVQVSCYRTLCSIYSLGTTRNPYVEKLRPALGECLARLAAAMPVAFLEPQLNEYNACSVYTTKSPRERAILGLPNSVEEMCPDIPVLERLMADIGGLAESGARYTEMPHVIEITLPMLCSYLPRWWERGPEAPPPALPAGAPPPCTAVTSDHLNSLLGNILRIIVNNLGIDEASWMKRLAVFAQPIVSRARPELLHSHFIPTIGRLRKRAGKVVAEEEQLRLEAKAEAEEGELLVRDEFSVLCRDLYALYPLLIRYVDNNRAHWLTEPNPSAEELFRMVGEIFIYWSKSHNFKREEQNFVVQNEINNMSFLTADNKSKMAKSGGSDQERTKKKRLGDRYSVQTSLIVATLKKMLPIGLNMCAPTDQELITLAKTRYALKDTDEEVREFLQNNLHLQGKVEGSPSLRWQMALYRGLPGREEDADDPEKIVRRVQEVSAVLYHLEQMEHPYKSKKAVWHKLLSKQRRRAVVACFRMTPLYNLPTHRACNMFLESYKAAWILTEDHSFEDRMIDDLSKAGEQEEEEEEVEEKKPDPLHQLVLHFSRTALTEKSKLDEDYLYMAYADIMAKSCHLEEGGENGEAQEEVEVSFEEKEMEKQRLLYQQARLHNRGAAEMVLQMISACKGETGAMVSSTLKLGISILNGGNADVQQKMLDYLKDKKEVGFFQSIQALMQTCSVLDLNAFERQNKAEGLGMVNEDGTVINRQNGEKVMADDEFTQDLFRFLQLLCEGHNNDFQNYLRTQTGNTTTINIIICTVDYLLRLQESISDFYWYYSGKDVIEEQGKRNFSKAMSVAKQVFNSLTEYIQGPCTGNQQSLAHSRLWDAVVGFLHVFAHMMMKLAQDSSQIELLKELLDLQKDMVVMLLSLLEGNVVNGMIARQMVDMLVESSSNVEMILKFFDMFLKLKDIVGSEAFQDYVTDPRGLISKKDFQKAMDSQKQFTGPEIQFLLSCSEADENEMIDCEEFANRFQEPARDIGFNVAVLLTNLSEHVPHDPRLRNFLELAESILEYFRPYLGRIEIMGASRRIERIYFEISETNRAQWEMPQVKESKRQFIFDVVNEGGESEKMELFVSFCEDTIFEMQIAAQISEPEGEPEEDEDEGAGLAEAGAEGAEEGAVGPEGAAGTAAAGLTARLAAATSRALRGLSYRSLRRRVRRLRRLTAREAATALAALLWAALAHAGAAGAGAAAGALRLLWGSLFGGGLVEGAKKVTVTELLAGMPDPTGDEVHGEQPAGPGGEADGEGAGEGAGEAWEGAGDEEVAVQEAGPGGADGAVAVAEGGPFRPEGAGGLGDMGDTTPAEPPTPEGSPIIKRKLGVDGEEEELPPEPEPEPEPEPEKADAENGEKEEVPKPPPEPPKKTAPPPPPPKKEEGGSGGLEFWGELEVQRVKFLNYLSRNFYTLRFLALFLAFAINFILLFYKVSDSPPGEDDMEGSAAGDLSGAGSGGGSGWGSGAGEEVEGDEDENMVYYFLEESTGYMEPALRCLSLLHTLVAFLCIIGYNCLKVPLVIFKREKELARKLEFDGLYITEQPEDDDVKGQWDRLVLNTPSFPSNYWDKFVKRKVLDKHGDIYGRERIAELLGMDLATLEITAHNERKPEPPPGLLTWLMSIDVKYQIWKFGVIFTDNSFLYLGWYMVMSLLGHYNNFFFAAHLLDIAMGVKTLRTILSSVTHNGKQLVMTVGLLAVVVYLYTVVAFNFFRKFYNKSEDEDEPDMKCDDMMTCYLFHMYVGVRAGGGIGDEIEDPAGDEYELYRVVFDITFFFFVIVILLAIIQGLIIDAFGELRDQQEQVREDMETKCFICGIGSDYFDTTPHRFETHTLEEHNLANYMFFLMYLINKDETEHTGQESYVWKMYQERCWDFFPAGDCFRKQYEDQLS

For the molecule `Oc1c(Cl)cc(Cl)c2cccnc12` [chloroxine], the “Decrease in [3H]ryanodine binding” value on RyR1 [1] is listed as 20%. Moreover, the “Effect on FRET in previous 384-well screen” value at RyR1 [2] is given as “increased FRET”. In assay [3] (100 μM compound, 200 nM [Ca2+]cyto), the “Effect on steady-state [Ca2+]t-sys vs control (RyR1 leak)” value is “statistically decreased”. Also, in assay [3] (all three concentrations tested (1, 10 and 100 μM), towards level of 1 mM tetracaine), the “Effect on steady-state [Ca2+]t-sys (RyR1 leak)” value is “progressively reduced”. Also, in assay [3], the “Reduction of RyR1 Ca2+ leak” value is recorded as above 50%.
On to `O=c1c(O)c(-c2cc(O)c(O)c(O)c2)oc2cc(O)cc(O)c12` [myricetin], for which the “Decrease of F-FKBP binding” value at RyR2 [4] and at RyR1 [6] was “did not alter” each time. Besides, the “Effect on [3H]ryanodine binding” value at RyR2 [5] is recorded as “only inhibits”. Further, the “Effect on steady-state [Ca2+]t-sys vs control (RyR1 leak)” value is “decreased” in assay [3] (1 μM compound, 200 nM [Ca2+]cyto) and “decreased” in assay [3] (setting [7]). For the same molecule, the “Effect on [Ca2+]t-sys relative to RyR blocker tetracaine” value in assay [3] (setting [7]) is reported as “went beyond the effects of 1 mM tetracaine”. Moreover, the “Reduction of RyR1 Ca2+ leak” value in assay [3] is reported as above 50%.
